Our source for the IC50 values is BindingDB's records for doi:10.1021/jm00143a003 (1982).

This assay has as its target Spermine synthase (Rattus norvegicus). Kind of assay: Inhibitory activity against spermine synthase.

A word on the IC50: it is the concentration that inhibits the measured activity by half. A higher IC50 goes with lower potency. With `C[S+](C[C@H]1O[C@H](n2cnc3c(N)ncnc32)[C@H](O)[C@@H]1O)C(CCN)CCCCCN` (stereo partly specified), the IC50 turned out to be 80 µM.
